Earlier results, collected in patent publication US10927398B2, “Compositions for CYP450 phenotyping using saliva samples” (Concordia University, Inc., priority 2015, dated 2021).
Where two headings read alike, the source gives them in different places.

Columns and labels:
plasma protein = conditions: cited from earlier work
[1] = cited from earlier work
[2] = Table of Exemplary Drugs, CYP2D6
[3] = Table of Exemplary Drugs, CYP3A4
[4] = Table of Exemplary Drugs, CYP2C19
[5] = Table of Exemplary Drugs, CYP2C9

Row | Structure (SMILES) | PLASMA PROTEIN BINDING (plasma protein; [3]) | HALF-LIFE [1, 3] [h] | also measured
1 | O=C1CCc2ccc(OCCCCN3CCN(c4cccc(Cl)c4Cl)CC3)cc2N1 [Aripiprazole] | – | – | PLASMA PROTEIN BINDING (plasma protein; [2]): >99%; HALF-LIFE [1, 2]: 75 h
2 | C=C(c1ccc(C(=O)O)cc1)c1cc2c(cc1C)C(C)(C)CCC2(C)C [Bexarotene (Targretin), Bexarotene] | 99% | 7 | –
3 | CC(NC(C)(C)C)C(=O)c1cccc(Cl)c1 (centres unmarked) [Bupropion] | 84% | 19 to 21.3 | PLASMA PROTEIN BINDING (plasma protein; [4]): 84%; HALF-LIFE [1, 4]: 19 to 21.3 h
4 | NC(=O)N1c2ccccc2C=Cc2ccccc21 [Carbamazepine (eg. Tegretol), Carbamazepine] | 76% | 12 to 17 | –
5 | CCCC(C)(COC(N)=O)COC(=O)NC(C)C (centres unmarked) [Carisoprodol] | – | – | PLASMA PROTEIN BINDING (plasma protein; plasma): 60%
6 | Cc1ccc(-c2cc(C(F)(F)F)nn2-c2ccc(S(N)(=O)=O)cc2)cc1 [Celecoxib] | – | – | PLASMA PROTEIN BINDING (plasma protein; [5]): 97%; HALF-LIFE [1, 5]: 11 h
7 | CC1OC2(CS1)CN1CCC2CC1 (centres unmarked) [Cevimeline (Evoxac), Cevimeline] | <20% | 4 to 6 | –
8 | CN(C)CCC(c1ccc(Cl)cc1)c1ccccn1 (centres unmarked) [Chlorphenamine] | – | – | PLASMA PROTEIN BINDING (plasma protein; [2]): 72%
9 | O=C1CN=C(c2ccccc2Cl)c2cc([N+](=O)[O-])ccc2N1 [Clonazepam (Klonopin), Clonazepam] | 85% | – | HALF-LIFE ([1]; in vivo): 30 to 40 h
10 | O=P1(N(CCCl)CCCl)NCCCO1 (centres unmarked) [Cyclophosphamide] | – | – | PLASMA PROTEIN BINDING (plasma protein; plasma): >60%; HALF-LIFE ([1]; in vivo): 3 to 12 h
11 | Cc1nc(Nc2ncc(C(=O)Nc3c(C)cccc3Cl)s2)cc(N2CCN(CCO)CC2)n1 [Dasatinib (Sprycel), Dasatinib] | 96% | 3 to 5 | –
12 | C[C@@H]1C[C@H]2[C@@H]3CCC4=CC(=O)C=C[C@]4(C)[C@@]3(F)[C@@H](O)C[C@]2(C)[C@@]1(O)C(=O)CO [Dexmethasone (Decadron), Dexmethasone] | – | – | PLASMA PROTEIN BINDING (plasma protein; plasma): 77%
13 | CN[C@@H](C)Cc1ccccc1 [Dextromethamphetamine] | – | – | HALF-LIFE [1, 2]: 12 h
14 | CC(=O)O[C@@]12CO[C@@H]1C[C@H](O)[C@@]1(C)C(=O)[C@H](O)C3=C(C)[C@@H](OC(=O)[C@H](O)[C@@H](NC(=O)OC(C)(C)C)c4ccccc4)C[C@@](O)([C@@H](OC(=O)c4ccccc4)[C@H]21)C3(C)C [Docetaxel (Taxotere), Docetaxel] | 94-97% ^ | 11.1 | –
15 | O=C(CCCN1CC=C(n2c(=O)[nH]c3ccccc32)CC1)c1ccc(F)cc1 [Droperidol] | – | 2 | –
16 | CN1CCN(C(=O)O[C@H]2c3nccnc3C(=O)N2c2ccc(Cl)cn2)CC1 [Eszopiclone (Lunesta), Eszopiclone] | 52-59% ^ | – | –
17 | COCCCC/C(=N\OCCN)c1ccc(C(F)(F)F)cc1 [Fluvoxamine] | – | – | HALF-LIFE ([1]; Table of Exemplary Drugs, CYP1A2): ~14 to 16 h; HALF-LIFE [1, 2]: 15.6 h
18 | CC(C)CN(C[C@@H](OP(=O)(O)O)[C@H](Cc1ccccc1)NC(=O)O[C@H]1CCOC1)S(=O)(=O)c1ccc(N)cc1 [Fosamprenavir (Lexiva), Fosamprenavir] | 90% | 7.7 | –
19 | COc1ccc(Cl)cc1C(=O)NCCc1ccc(S(=O)(=O)NC(=O)NC2CCCCC2)cc1 [Glibenclamide] | – | – | PLASMA PROTEIN BINDING (plasma protein; [5]): 99%

Row | Structure (SMILES) | PLASMA PROTEIN BINDING (plasma protein; [3]) | HALF-LIFE [1, 3] [h] | also measured
20 | CN1C2CCCC1CC(NC(=O)c1nn(C)c3ccccc13)C2 (centres unmarked) [Granisetron (Kytril), Granisetron] | 65% | 3 to 24 | –
21 | CCCCN(CCCC)CCC(O)c1cc2c(Cl)cc(Cl)cc2c2cc(C(F)(F)F)ccc12 (centres unmarked) [Halofantrine (Halfan), Halofantrine] | 60-70% ^ | 140 to 240 | –
22 | CN1C(=O)NC(=O)C(C)(C2=CCCCC2)C1=O (centres unmarked) [Hexobarbital] | – | – | PLASMA PROTEIN BINDING (plasma protein; [4]): 25%
23 | CCC(C)n1ncn(-c2ccc(N3CCN(c4ccc(OCC5COC(Cn6cncn6)(c6ccc(Cl)cc6Cl)O5)cc4)CC3)cc2)c1=O (centres unmarked) [Itraconazole (Sporanox), Itraconazole] | – | 35 to 64 | –
24 | C/C(=C\c1csc(C)n1)[C@@H]1C[C@@H]2O[C@]2(C)CCC[C@H](C)[C@H](O)[C@@H](C)C(=O)C(C)(C)[C@@H](O)CC(=O)N1 [Ixabepilone (Ixempra), Ixabepilone] | 67-77% ^ | 52 | –
25 | CS(=O)(=O)CCNCc1ccc(-c2ccc3ncnc(Nc4ccc(OCc5cccc(F)c5)c(Cl)c4)c3c2)o1 [Lapatinib (Tykerb), Lapatinib] | >99% | 24 | –
26 | CC[C@H](O)C(C[C@H](C)N(C)C)(c1ccccc1)c1ccccc1 [Levomethadyl (Orlaam), Levomethadyl] | 80% | – | HALF-LIFE ([1]; in vivo): 35 to 60 h
27 | C=C(C)[C@H]1CC=C(C)CC1 [Limonene] | – | – | HALF-LIFE [1, 4]: 12 to 24 h
28 | Cc1c(OCC(F)(F)F)ccnc1C[S+]([O-])c1nc2ccccc2[nH]1 (centres unmarked) [Llansoprazole] | – | – | PLASMA PROTEIN BINDING (plasma protein; [4]): 97-99% ^; HALF-LIFE [1, 4]: 0.9 to 1.5 h
29 | Cc1cccc(C)c1OCC(=O)N[C@@H](Cc1ccccc1)[C@@H](O)C[C@H](Cc1ccccc1)NC(=O)[C@H](C(C)C)N1CCCNC1=O [Lopinavir (Kaletra), Lopinavir] | 98-99% ^ | 5 to 6 | –
30 | CC[C@H](C)C(=O)O[C@H]1C[C@@H](C)C=C2C=C[C@H](C)[C@H](CC[C@@H]3C[C@@H](O)CC(=O)O3)[C@H]21 [Lovastatin (Mevacor), Lovastatin] | >95% | 2 to 5 | –
31 | C[C@H]1C[C@@H]2[C@H]([C@@H](O)C[C@@]3(C)[C@H]2CC[C@]3(O)C(=O)CO)[C@@]2(C)C=CC(=O)C=C12 [Methylprednisolone] | 78% | 2 to 3 | –
32 | CCN(CC)CCNC(=O)c1cc(Cl)c(N)cc1OC [Metoclopramide] | – | – | PLASMA PROTEIN BINDING (plasma protein; [2]): 30%; HALF-LIFE [1, 2]: 5 to 6 h
33 | Cc1cc(-c2ccccc2)nnc1NCCN1CCOCC1 [Minaprine] | – | – | HALF-LIFE [1, 2]: 2 to 2.5 h
34 | NC(=O)C[S+]([O-])C(c1ccccc1)c1ccccc1 (centres unmarked) [Modafinil (Provigil), Modafinil] | 60% | 7.5 to 15 | –
35 | Cc1c(O)cccc1C(=O)N[C@@H](CSc1ccccc1)[C@H](O)CN1C[C@H]2CCCC[C@H]2C[C@H]1C(=O)NC(C)(C)C [Nelfinavir] | – | – | PLASMA PROTEIN BINDING (plasma protein; [4]): 98%; HALF-LIFE [1, 4]: 3.5 to 5 h
36 | CC1(C)NC(=O)N(c2ccc([N+](=O)[O-])c(C(F)(F)F)c2)C1=O [Nilutamide] | – | – | PLASMA PROTEIN BINDING (plasma protein; [4]): 80-84% ^; HALF-LIFE [1, 4]: 38 to 59.1 h
37 | CN(C)C[C@H]1CCCC[C@]1(O)c1cccc(O)c1 [O-desmethyltramadol] | – | – | HALF-LIFE [1, 2]: 9 h
38 | CCN(CC)CC#CCOC(=O)C(O)(c1ccccc1)C1CCCCC1 (centres unmarked) [Oxybutynin (Ditropan), Oxybutynin] | 91-93% ^ | 7 to 30 | –

Row | Structure (SMILES) | PLASMA PROTEIN BINDING (plasma protein; [3]) | HALF-LIFE [1, 3] [h] | also measured
39 | Fc1ccc([C@@H]2CCNC[C@H]2COc2ccc3c(c2)OCO3)cc1 [Paroxetine] | – | – | PLASMA PROTEIN BINDING (plasma protein; [2]): 93-95% ^; HALF-LIFE [1, 2]: 15 to 21 h
40 | C1CCC(C(CC2CCCCN2)C2CCCCC2)CC1 (centres unmarked) [Perhexiline] | – | – | HALF-LIFE [1, 2]: 12 to 18 h
41 | O=c1[nH]c2ccccc2n1C1CCN(CCCC(c2ccc(F)cc2)c2ccc(F)cc2)CC1 [Pimozide (Orap), Pimozide] | – | 55 | –
42 | CN1C(C(=O)Nc2ccccn2)=C(O)c2ccccc2S1(=O)=O [Piroxicam] | – | – | PLASMA PROTEIN BINDING (plasma protein; [5]): 99%; HALF-LIFE [1, 5]: 50 h
43 | C[C@]12C=CC(=O)C=C1CC[C@@H]1[C@@H]2[C@@H](O)C[C@@]2(C)[C@H]1CC[C@]2(O)C(=O)CO [Prednisolone] | 70-90% ^ | 2 to 4 | –
44 | [H]/N=C(\N/C(=N/[H])Nc1ccc(Cl)cc1)NC(C)C [Proguanil] | – | – | PLASMA PROTEIN BINDING (plasma protein; [4]): 75%; HALF-LIFE [1, 4]: 12 to 18 h
45 | OCCOCCN1CCN(C2=Nc3ccccc3Sc3ccccc32)CC1 [Quetiapine (Seroquel), Quetiapine] | 83% | 6 to 7 | –
46 | CCN(CC)CCCC(C)Nc1c2ccc(Cl)cc2nc2ccc(OC)cc12 (centres unmarked) [Quinacrine] | 80-90% ^ | 120 | –
47 | Cc1nc2n(c(=O)c1CCN1CCC(c3noc4cc(F)ccc34)CC1)CCCC2 [Risperidone] | – | – | HALF-LIFE [1, 2]: 3 to 20 h
48 | CC(C)c1nc(CN(C)C(=O)N[C@H](C(=O)N[C@@H](Cc2ccccc2)C[C@H](O)[C@H](Cc2ccccc2)NC(=O)OCc2cncs2)C(C)C)cs1 [Ritonavir (Norvir), Ritonavir] | – | 3 to 5 | –
49 | CN(CCOc1ccc(CC2SC(=O)NC2=O)cc1)c1ccccn1 (centres unmarked) [Rosiglitazone] | – | – | HALF-LIFE [1, 5]: 3 to 4 h
50 | CC(C)(C)NC(=O)[C@@H]1C[C@@H]2CCCC[C@@H]2CN1C[C@@H](O)[C@H](Cc1ccccc1)NC(=O)[C@H](CC(N)=O)NC(=O)c1ccc2ccccc2n1 [Saquinavir (Invirase), Saquinavir] | 98% | 13 | –
51 | CCCc1nn(C)c2c(=O)[nH]c(-c3cc(S(=O)(=O)N4CCN(C)CC4)ccc3OCC)nc12 [Sildenafil] | 96% | – | PLASMA PROTEIN BINDING (plasma protein; [5]): 96%; HALF-LIFE [1, 5]: 4 h
52 | CCN(CC)CCNC(=O)c1c(C)[nH]c(/C=C2\C(=O)Nc3ccc(F)cc32)c1C [Sunitinib (Sutent), Sunitinib] | 95% | 40 to 60 | –
53 | CSc1ccc2c(c1)N(CCC1CCCCN1C)c1ccccc1S2 (centres unmarked) [Thioridazine] | – | – | HALF-LIFE [1, 2]: 21 to 24 h
54 | CCCCNC(=O)NS(=O)(=O)c1ccc(C)cc1 [Tolbutamide] | – | – | HALF-LIFE [1, 5]: 4.5 to 6.5 h
55 | CC[C@]1(O)C[C@H]2CN(CCc3c([nH]c4ccccc34)[C@@](C(=O)OC)(c3cc4c(cc3OC)N(C=O)[C@H]3[C@@](O)(C(=O)OC)[C@H](OC(C)=O)[C@]5(CC)C=CCN6CC[C@]43[C@@H]65)C2)C1 [Vincristine (Oncovin), Vincristine] | – | 85 | –
56 | Cc1ccc(-c2nc3ccc(C)cn3c2CC(=O)N(C)C)cc1 [Zolpidem (Ambien), Zolpidem] | – | – | HALF-LIFE ([1]; in vivo): 2.5 to 2.8 h
57 | NS(=O)(=O)Cc1noc2ccccc12 [Zonisamide (Zonegran), Zonisamide] | 40-60% ^ | – | –
